# Assay results from patent US20090176817A1, “Method of Treatment of Diarrhea-Predominant Irritable Bowel Syndrome in a Subject” (priority 2005, published 2009).
# Test system: diarrhea-predominant IBS subjects
# Assay: Study S241.3.006: weekly diary questions on adequate relief
# Type: in vivo, human
# Settings: for Number of months a subject was a responder: One month (Abdominal pain/discomfort) / Number of months a subject was a responder: One month (Abnormal bowel habits) / Number of months a subject was a responder: One month (IBS symptoms) / Number of months a subject was a responder: Three months (Abdominal pain/discomfort) / Number of months a subject was a responder: Three months (Abnormal bowel habits) / Number of months a subject was a responder: Three months (IBS symptoms) / Number of months a subject was a responder: Two months (Abdominal pain/discomfort) / Number of months a subject was a responder: Two months (Abnormal bowel habits) / Number of months a subject was a responder: Two months (IBS symptoms) / Number of months a subject was a responder: Zero months (Abdominal pain/discomfort) / Number of months a subject was a responder: Zero months (Abnormal bowel habits) / Number of months a subject was a responder: Zero months (IBS symptoms) / Overall responder rate, adequate relief of IBS symptoms / Overall responder rate, adequate relief of abdominal pain/discomfort / Overall responder rate, adequate relief of abnormal bowel habits: three-month treatment period; for Number of months a subject was a responder: One month (Abdominal pain/discomfort) / Number of months a subject was a responder: One month (Abnormal bowel habits) / Number of months a subject was a responder: One month (IBS symptoms) / Number of months a subject was a responder: Three months (Abdominal pain/discomfort) / Number of months a subject was a responder: Three months (Abnormal bowel habits) / Number of months a subject was a responder: Three months (IBS symptoms) / Number of months a subject was a responder: Two months (Abdominal pain/discomfort) / Number of months a subject was a responder: Two months (Abnormal bowel habits) / Number of months a subject was a responder: Two months (IBS symptoms) / Number of months a subject was a responder: Zero months (Abdominal pain/discomfort) / Number of months a subject was a responder: Zero months (Abnormal bowel habits) / Number of months a subject was a responder: Zero months (IBS symptoms): monthly LOCF
# Protocol: The study was conducted in 129 study centers in the United States. At total of 2080 subjects consented to participate, and 711 subjects were randomized. A total of 692 subjects were analyzed for efficacy and 701 subjects were analyzed for safety. Diagnosis and main criteria for inclusion were IBS subjects satisfying the Rome I criteria (1992); the diarrhea predominant sub-population of the Rome II criteria; and a minimum abdominal pain/discomfort, stool frequency and consistency determined during the run-in period. Subjects were treated with cilansetron 2 mg tablets given orally TID or matching placebo tablets given orally TID for 12 weeks double-blind treatment.
# The primary efficacy parameter was the number of months that a subject was a responder for IBS symptoms (abdominal pain, abdominal discomfort, abnormal bowel habits) over the 12-week treatment period. A responder for a month (monthly responder) was defined as a subject who answered the weekly question with “yes” at least twice for that month.
# Studies S24 1.3.OO6, S24 1.3.0 1 1, and S24 1.3.009 used the following efficacy measurements: • The subjects answered the following three questions with “yes” or “no” using a phone diary at the end of each week: • a) During the last week, did you experience adequate relief of your IBS symptoms, such as abdominal pain, abdominal discomfort, abnormal bowel habits? • b) During the last week, did you experience adequate relief of your abdominal pain and/or discomfort? • c) During the last week, did you experience adequate relief of your abnormal bowel habits? • The subjects rated the following symptoms using the phone diary at the end of each day: • abdominal pain/discomfort (five-point scale); • stool consistency (seven-point Bristol Stool Scale); • stool frequency (number of bowel movements each day); • urgency (five-point scale); • straining (yes or no); • feeling of incomplete defecation (yes or no); • bloating or feeling of abdominal distension (five-point scale). • In Studies S241 A006 and S241.3.009, subjects completed the IBS-QOL Survey at Baseline (Day 1) and at the end of treatment. In Study S24 1.3.0 1 1, subjects completed the IBS-QOL Survey at Baseline (Day 1), at the end of the three-month treatment period, and at the end of rerandomized treatment.
# In all three pivotal efficacy studies, the primary and main secondary efficacy parameters were based on the weekly diary questions on adequate relief and included the following: • 1. Number of months (one month equals four weeks) that a subject was a responder for the weekly diary questions on adequate relief. A responder for a month (monthly responder) was defined as a subject who answered the weekly question with “yes” at least twice for that month. For Studies S241.3.006 and S241.3.011, the primary efficacy parameter was the number of months that a subject was a responder for IBS symptoms during the 12-week treatment period. The two main secondary efficacy parameters were the number of months that a subject was a responder for abdominal pain/discomfort and abnormal bowel habits during the 12-week treatment period. For Study S241.3.009, the number of months that a subject was a responder for the weekly diary questions on adequate relief during Months 1 to 3 (the first 12 weeks) and Months 1 to 6 (24-week) was an additional key secondary efficacy parameter. • 2. Overall responder rate for the weekly diary questions on adequate relief. A responder was defined as a subject who answered the weekly question with “yes” for at least half of the answers available with a minimum of four weeks treatment duration. If a subject had less than four weeks treatment duration, the subject was considered a non-responder. The overall responder rate was the percentage of responders within a treatment group. For Study S241.3.009, the primary efficacy parameter was the overall responder rate for IBS symptoms during the 26-week treatment period. […]
# [1] = Duration of IBS: ≦24 months, ITT, 2 mg TID
# [2] = Female subjects, observed case, ITT, 2 mg TID
# [3] = Male subjects, observed case, ITT, 2 mg TID
structure (smiles),measurement,setting,value
"Cc1nccn1C[C@H]1CCc2c(c3cccc4c3n2CCC4)C1=O [Cilansetron, (R)-(−)-4,5,6,8,9,10-hexahydro-10-[(2-methyl-1H-imidazol-1-yl)methyl]-11H-pyrido-[3,2,1-jk]-carbazol-11-one]",Number of subjects who were responders during the three-month treatment period: Adequate relief of abnormal bowel habits,"Duration of IBS: ≦24 months, 2 mg TID, observed case, ITT",27 (53) n (%)
same,Number of months a subject was a responder: One month (Abdominal pain/discomfort),[1],7 (14) n (%)
same,Number of months a subject was a responder: One month (Abnormal bowel habits),[1],4 (8) n (%)
same,Number of months a subject was a responder: One month (IBS symptoms),[1],5 (10) n (%)
same,Number of months a subject was a responder: Three months (Abdominal pain/discomfort),[1],25 (49) n (%)
same,Number of months a subject was a responder: Three months (Abnormal bowel habits),[1],22 (43) n (%)
same,Number of months a subject was a responder: Three months (IBS symptoms),[1],19 (37) n (%)
same,Number of months a subject was a responder: Two months (Abdominal pain/discomfort),[1],4 (8) n (%)
same,Number of months a subject was a responder: Two months (Abnormal bowel habits),[1],7 (14) n (%)
same,Number of months a subject was a responder: Two months (IBS symptoms),[1],8 (16) n (%)
same,Number of months a subject was a responder: Zero months (Abdominal pain/discomfort),[1],15 (29) n (%)
same,Number of months a subject was a responder: Zero months (Abnormal bowel habits),[1],18 (35) n (%)
same,Number of months a subject was a responder: Zero months (IBS symptoms),[1],19 (37) n (%)
same,Number of months a subject was a responder: One month (Abdominal pain/discomfort),"Female subjects, ITT, 2 mg TID",32 (13) n (%)
same,Number of months a subject was a responder: One month (Abnormal bowel habits),"Female subjects, ITT, 2 mg TID",27 (11) n (%)
same,Number of months a subject was a responder: One month (IBS symptoms),"Female subjects, ITT, 2 mg TID",36 (15) n (%)
same,Number of months a subject was a responder: Three months (Abdominal pain/discomfort),"Female subjects, ITT, 2 mg TID",103 (42) n (%)
same,Number of months a subject was a responder: Three months (Abnormal bowel habits),"Female subjects, ITT, 2 mg TID",104 (43) n (%)
same,Number of months a subject was a responder: Three months (IBS symptoms),"Female subjects, ITT, 2 mg TID",94 (39) n (%)
same,Number of months a subject was a responder: Two months (Abdominal pain/discomfort),"Female subjects, ITT, 2 mg TID",38 (16) n (%)
same,Number of months a subject was a responder: Two months (Abnormal bowel habits),"Female subjects, ITT, 2 mg TID",37 (15) n (%)
same,Number of months a subject was a responder: Two months (IBS symptoms),"Female subjects, ITT, 2 mg TID",38 (16) n (%)
same,Number of months a subject was a responder: Zero months (Abdominal pain/discomfort),"Female subjects, ITT, 2 mg TID",70 (29) n (%)
same,Number of months a subject was a responder: Zero months (Abnormal bowel habits),"Female subjects, ITT, 2 mg TID",75 (31) n (%)
same,Number of months a subject was a responder: Zero months (IBS symptoms),"Female subjects, ITT, 2 mg TID",75 (31) n (%)
same,"Overall responder rate, adequate relief of IBS symptoms",[2],127 (52) n (%)
same,"Overall responder rate, adequate relief of abdominal pain/discomfort",[2],134 (55) n (%)
same,"Overall responder rate, adequate relief of abnormal bowel habits",[2],135 (56) n (%)
same,Number of months a subject was a responder: One month (Abdominal pain/discomfort),"Male subjects, ITT, 2 mg TID",10 (10) n (%)
same,Number of months a subject was a responder: One month (Abnormal bowel habits),"Male subjects, ITT, 2 mg TID",13 (13) n (%)
same,Number of months a subject was a responder: One month (IBS symptoms),"Male subjects, ITT, 2 mg TID",9 (9) n (%)
same,Number of months a subject was a responder: Three months (Abdominal pain/discomfort),"Male subjects, ITT, 2 mg TID",36 (36) n (%)
same,Number of months a subject was a responder: Three months (Abnormal bowel habits),"Male subjects, ITT, 2 mg TID",25 (25) n (%)
same,Number of months a subject was a responder: Three months (IBS symptoms),"Male subjects, ITT, 2 mg TID",25 (25) n (%)
same,Number of months a subject was a responder: Two months (Abdominal pain/discomfort),"Male subjects, ITT, 2 mg TID",9 (9) n (%)
same,Number of months a subject was a responder: Two months (Abnormal bowel habits),"Male subjects, ITT, 2 mg TID",15 (15) n (%)
same,Number of months a subject was a responder: Two months (IBS symptoms),"Male subjects, ITT, 2 mg TID",15 (15) n (%)
same,Number of months a subject was a responder: Zero months (Abdominal pain/discomfort),"Male subjects, ITT, 2 mg TID",46 (46) n (%)
same,Number of months a subject was a responder: Zero months (Abnormal bowel habits),"Male subjects, ITT, 2 mg TID",48 (48) n (%)
same,Number of months a subject was a responder: Zero months (IBS symptoms),"Male subjects, ITT, 2 mg TID",52 (51) n (%)
same,"Overall responder rate, adequate relief of IBS symptoms",[3],41 (41) n (%)
same,"Overall responder rate, adequate relief of abdominal pain/discomfort",[3],45 (45) n (%)
same,"Overall responder rate, adequate relief of abnormal bowel habits",[3],39 (39) n (%)
same,"Overall responder rate, IBS symptoms",females,52%
same,"Overall responder rate, abdominal pain/discomfort",females,55%
same,"Overall responder rate, abnormal bowel habits",females,56%
same,"Overall responder rate, IBS symptoms",males,41%
same,"Overall responder rate, abdominal pain/discomfort",males,45%
same,"Overall responder rate, abnormal bowel habits",males,39%
same,"Overall responder rate, abdominal pain/discomfort",non-Caucasians,48%
